The test system of series [1] is A498 renal cell carcinoma cell line. Briefly: MTT cytotoxicity assay, A498. Particulars: Homo sapiens, A498, 24 h. On the technique in general: Formazan colour is commonly taken as a measure of viable cells.
Procedure: (§1) The MTT test was used to evaluate the inhibitory effects of the substances on cell proliferation in the aforementioned cell lines. This colorimetric assay targets the mitochondrial succinate dehydrogenase of living cells to change yellow tetrazolium bromide (MTT) to a purple formazan derivative. […] Then, the cells were incubated for 24 h and exposed to various chemical concentrations. 20 μL of a 5 mg/mL MTT solution was applied after a 24-h drug treatment period and incubated for 4 h. To dissolve the produced purple formazan, each well receives 100 μL of dimethyl sulfoxide (DMSO). […] The formula for calculating the relative percentage of cell viability was (A570 of treated samples/A570 of the untreated sample) × 100.
Series [2] concerns A549 non-small cell lung cancer (NSCLC) cell line. In words: MTT cytotoxicity assay, A549. Particulars: Homo sapiens, A549, 24 h.
Procedure: as §1
A further series deals with human topoisomerase II (Homo sapiens, UniProt P11388). Briefly: DNA Topo II inhibition (kDNA decatenation) assay. In kind it is biochemical. The conditions noted are these: for IC50: kDNA decatenation, four concentrations 0.1-100 µM, mean ± SD of two independent assays. On the procedure: The ATP-dependent decatenation of kinetoplast DNA (kDNA) obtained from Crithidia fasciculata, which consists of a network of numerous minicircles (2.3 Kb) and some maxicircles, was used to measure topoisomerase II inhibition. Reactions took place in 20 μL and comprised topoisomerase II, 200–300 ng of kDNA, and 120 mM KCl with 50 mM Tris-HCl, pH 8, 10 mM MgCl2, 0.5 mM ATP, and 0.5 mM dithiothreitol. In preliminary tests, the quantity of topoisomerase II (5 units) was changed to decatenate almost 100% of the kDNA under these assay circumstances. […] The products in the reaction mixture were separated by a 1% agarose gel after the reaction was complete and then could be seen after being stained with ethidium bromide (0.2 μg/mL). The gels were run at 100 V for about 40 min and visualised under UV transillumination.
This assay is based on the fact that human Topo II can decatenate interlinked double-stranded DNA molecules.

For series [3], the system named is MCF7 breast cancer cell line. Briefly: MTT cytotoxicity assay, MCF7. Particulars: MCF7, MTT.
Procedure: as §1
The newly prepared compounds were screened against three cancer cell lines: namely, breast cancer cell line MCF7, non-small cell lung cancer (NSCLC) cell line A549, and renal cancer cell line A498, using the MTT colorimetric assay.
Setting [4] is: read-out: Cytotoxicity IC50 A498± SD, MTT, A498, 24 h treatment, mean ± SD of two independent assays.
The mark [5] stands for this setting: read-out: Cytotoxicity IC50 A549± SD, MTT, A549, 24 h treatment, mean ± SD of two independent assays.

Read-outs that look alike come from different tables or passages of the source.

Chain of human topoisomerase II (P11388 whole entry): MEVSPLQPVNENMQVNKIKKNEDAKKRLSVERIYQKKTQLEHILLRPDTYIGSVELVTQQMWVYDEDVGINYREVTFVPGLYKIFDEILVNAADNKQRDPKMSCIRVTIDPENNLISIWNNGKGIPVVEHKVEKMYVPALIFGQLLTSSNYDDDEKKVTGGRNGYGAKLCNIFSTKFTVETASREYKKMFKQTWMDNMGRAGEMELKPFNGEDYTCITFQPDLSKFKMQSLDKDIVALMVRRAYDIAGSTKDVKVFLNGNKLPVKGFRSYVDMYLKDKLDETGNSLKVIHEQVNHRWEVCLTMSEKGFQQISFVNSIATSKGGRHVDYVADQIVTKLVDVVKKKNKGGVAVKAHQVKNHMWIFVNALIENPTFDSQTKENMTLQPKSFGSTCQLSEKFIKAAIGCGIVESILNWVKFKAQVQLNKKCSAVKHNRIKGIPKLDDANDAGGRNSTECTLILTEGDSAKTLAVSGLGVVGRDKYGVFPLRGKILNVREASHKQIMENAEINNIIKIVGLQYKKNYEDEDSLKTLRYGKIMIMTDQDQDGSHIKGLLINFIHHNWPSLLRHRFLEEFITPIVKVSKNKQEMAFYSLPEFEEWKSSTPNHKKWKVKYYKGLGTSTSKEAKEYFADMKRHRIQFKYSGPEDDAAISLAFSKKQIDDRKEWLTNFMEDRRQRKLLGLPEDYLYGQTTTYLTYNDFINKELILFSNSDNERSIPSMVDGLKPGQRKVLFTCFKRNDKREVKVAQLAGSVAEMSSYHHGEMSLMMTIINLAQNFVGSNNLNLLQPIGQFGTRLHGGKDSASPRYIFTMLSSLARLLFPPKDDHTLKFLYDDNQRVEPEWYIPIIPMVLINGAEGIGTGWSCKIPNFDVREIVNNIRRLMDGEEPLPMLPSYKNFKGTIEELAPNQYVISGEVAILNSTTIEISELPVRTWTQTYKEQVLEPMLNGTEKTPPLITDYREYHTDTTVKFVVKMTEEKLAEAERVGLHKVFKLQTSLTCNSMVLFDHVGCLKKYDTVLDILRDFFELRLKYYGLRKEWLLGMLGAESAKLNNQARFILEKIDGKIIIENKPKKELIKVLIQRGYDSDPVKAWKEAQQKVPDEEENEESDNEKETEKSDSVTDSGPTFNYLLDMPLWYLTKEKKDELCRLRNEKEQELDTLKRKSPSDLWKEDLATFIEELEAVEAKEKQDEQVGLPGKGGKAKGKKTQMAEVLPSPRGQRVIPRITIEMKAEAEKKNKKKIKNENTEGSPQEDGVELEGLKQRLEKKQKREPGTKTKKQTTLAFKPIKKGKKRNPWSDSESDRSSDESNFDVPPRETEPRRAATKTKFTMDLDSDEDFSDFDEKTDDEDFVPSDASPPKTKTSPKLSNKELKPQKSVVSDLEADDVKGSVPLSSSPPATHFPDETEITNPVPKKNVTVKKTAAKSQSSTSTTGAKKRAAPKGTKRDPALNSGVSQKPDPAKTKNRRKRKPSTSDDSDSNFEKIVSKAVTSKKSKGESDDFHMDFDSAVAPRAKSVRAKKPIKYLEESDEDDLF

In turn, `CCOC(=O)C1=C(C)N=C2SC=C(NC(=O)CCl)N2C1c1ccc(OC)cc1OC` (stereo not shown) [Compound 5, ethyl 3–(2-chloroacetamido)-5–(2,4-dimethoxyphenyl)-7-methyl-5H-thiazolo[3,2-a]pyrimidine-6-carboxylate] returned a melting point of 150 to 152 °C.
On to `CCOC(=O)C1=C(C)N=C2SC=C(NC(=O)Nc3ccc(Cl)c(C(F)(F)F)c3)N2C1c1ccc(OC)cc1OC` (stereo not shown) [Compound 7b, Ethyl 3–(3-(4-chloro-3-(trifluoromethyl)phenyl)ureido)-5–(2,4-dimethoxyphenyl)-7-methyl-5H-thiazolo[3,2-a]pyrimidine-6-carboxylate], for which the figures for the IC50 (in series [1] (setting [4]); in series [2] (setting [5]); on human topoisomerase II) were 9 nM, 19 nM and 1050 ± 60 nM, respectively. Also, the “%inh TOPO II” value at human topoisomerase II (conc 0.1 (μM)) is on record as 28%; at human topoisomerase II (conc 1 (μM)), 52%; at human topoisomerase II (conc 10 (μM)) it was 71%; at human topoisomerase II (conc 100 (μM)) it was 88%.
Consider `CCOC(=O)C1=C(C)N=C2SCC(=O)N2C1c1ccc(OC)cc1OC` (stereo not shown) [Compound 3a, Ethyl 5–(2,4-dimethoxyphenyl)-7-methyl-3-oxo-3,5-dihydro-5H-thiazolo[3,2-a] pyrimidine-6-carboxylate], for which the melting point was 195 to 197 °C. The concentration for half-maximal inhibition (IC50) in series [1] (setting [4]) came out at 73 nM. Also, the IC50 in series [2] (setting [5]) stood at 93 nM.
Regarding “ethyl 4–(2,4-dimethoxyphenyl)-6-methyl-2-thioxo-1,2,3,6-tetrahydropyrimidine-5-carboxylate [Compound 1]”, the “% viability” value was 81.002% in series [3] (0.4ug); 67.624% in series [3] (1.6ug); 61.271% in series [3] (6.3ug); 51.07% in series [3] (25ug); 44.533% in series [3] (100ug).
For `CCOC(=O)C1=C(C)N=c2sc(=Cc3ccc(OC)cc3)c(=O)n2C1c1ccc(OC)cc1OC` (stereo not shown) [Compound 3b, Ethyl 5–(2,4-dimethoxyphenyl)-2–(4-methoxybenzylidene)-7-methyl-3-oxo-2,3-dihydro-5H-thiazolo[3,2-a]pyrimidine-6-carboxylate], the melting point was in the range of 175 to 177 °C. The IC50 in series [1] (setting [4]) was found to be 46 nM. In series [2] (setting [5]), the concentration for half-maximal inhibition (IC50) came out at 24 nM. For the same compound, on human topoisomerase II (conc 0.1 (μM)), the “%inh TOPO II” value amounted to 19%. Also, the “%inh TOPO II” value at human topoisomerase II (conc 1 (μM)) is 30%. On human topoisomerase II (conc 10 (μM)), the “%inh TOPO II” value turned out to be 48%. In addition, on human topoisomerase II (conc 100 (μM)), the “%inh TOPO II” value amounted to 80%. This compound also gave an IC50 at human topoisomerase II of 6140 ± 360 nM.
In the case of `CCOC(=O)C1=C(C)N=C2SC=C(NC(=O)CN3CCOCC3)N2C1c1ccc(OC)cc1OC` (stereo not shown) [Compound 6b], the IC50 in series [1] (setting [4]) is 10 nM; in series [2] (setting [5]), 6 nM; against human topoisomerase II, 1510 ± 90 nM. Moreover, the “%inh TOPO II” value on human topoisomerase II (conc 0.1 (μM)) worked out at 28%; on human topoisomerase II (conc 1 (μM)), 44%; at human topoisomerase II (conc 10 (μM)) it was 67%; at human topoisomerase II (conc 100 (μM)), 88%.
The compound `CCOC(=O)C1=C(C)N=C2SC=C(N)N2C1c1ccc(OC)cc1OC` (stereo not shown) [Compound 2, ethyl 3-amino-5–(2,4-dimethoxyphenyl)-7-methyl-5H-thiazolo[3,2-a] pyrimidine-6-carboxylate] displayed a melting point of 172 to 174 °C. Also, the half-inhibitory concentration (IC50) in series [1] (setting [4]) came out at 332 nM. For the same compound, the IC50 in series [2] (setting [5]) stood at 23 nM.
In the case of `CCOC(=O)C1=C(C)N=C2SC=C(NC(=O)CN3CCN(CC)CC3)N2C1c1ccc(OC)cc1OC` (stereo not shown) [Compound 6a], the values for the IC50 (in series [1] (setting [4]); in series [2] (setting [5]); on human topoisomerase II) were 2 nM, 8 nM and 1880 ± 110 nM, respectively. For the same compound, the “%inh TOPO II” value on human topoisomerase II (conc 0.1 (μM)) stood at 26%; at human topoisomerase II (conc 1 (μM)) it was 42%; at human topoisomerase II (conc 10 (μM)), 67%; on human topoisomerase II (conc 100 (μM)), 83%.
Take `CCOC(=O)C1=C(C)N=C2SC=C(NC(=O)Nc3ccc(Cl)cc3)N2C1c1ccc(OC)cc1OC` (stereo not shown) [Compound 7a, Ethyl 3–(3-(4-chlorophenyl)ureido)-5–(2,4-dimethoxyphenyl)-7-methyl-5H-thiazolo[3,2-a]pyrimidine-6-carboxylate]: the “%inh TOPO II” value at human topoisomerase II (conc 0.1 (μM)) is recorded as 20%; at human topoisomerase II (conc 1 (μM)), 34%; at human topoisomerase II (conc 10 (μM)), 57%; on human topoisomerase II (conc 100 (μM)) it was 84%. Further, the half-inhibitory concentration (IC50) at human topoisomerase II amounted to 3560 ± 210 nM.
In the case of `COc1cccc2c1C(=O)c1c(O)c3c(c(O)c1C2=O)C[C@@](O)(C(=O)CO)C[C@@H]3O[C@H]1C[C@H](N)[C@H](O)[C@H](C)O1` [Doxorubicin, reference compound], the IC50 in series [1] (read-out: Cytotoxicity IC50 A498± SD) came to 7 nM; in series [2] (read-out: Cytotoxicity IC50 A549± SD), 13 nM. Besides, the “%inh TOPO II” value is 30% at human topoisomerase II (conc 0.1 (μM)), 51% on human topoisomerase II (conc 1 (μM)), 77% at human topoisomerase II (conc 10 (μM)) and 90% at human topoisomerase II (conc 100 (μM)).
On to `CCOC(=O)C1=C(C)N=c2sc(=Cc3cc(OC)c(OC)c(OC)c3)c(=O)n2C1c1ccc(OC)cc1OC` (stereo not shown) [Compound 3d, Ethyl 5–(2,4-dimethoxyphenyl)-7-methyl-3-oxo-2–(3,4,5-trimethoxybenzylidene)-2,3-dihydro-5H-thiazolo[3,2-a]pyrimidine-6-carboxylate], for which the melting point fell in the range of 190 to 192 °C. The half-inhibitory concentration (IC50) in series [1] (setting [4]) is 4 nM. Besides, in series [2] (setting [5]), the half-inhibitory concentration (IC50) worked out at 12 nM. The “%inh TOPO II” value at human topoisomerase II (conc 0.1 (μM)) turned out to be 28%. Besides, the “%inh TOPO II” value on human topoisomerase II (conc 1 (μM)) was determined as 41%. Further, the “%inh TOPO II” value on human topoisomerase II (conc 10 (μM)) is 59%. Also, the “%inh TOPO II” value on human topoisomerase II (conc 100 (μM)) came to 85%. The compound further came in with a half-inhibitory concentration (IC50) against human topoisomerase II of 2210 ± 130 nM.
In the case of “Ethyl 5–(2,4-dimethoxyphenyl)-7-methyl-3-((2-oxo-2-(piperazin-1-yl)ethyl)amino)-5H-thiazolo[3,2-a]pyrimidine-6-carboxylate [Compound 6c]”, the “% viability” value in series [3] (0.4ug) is reported as 77.067%; in series [3] (1.6ug), 70.045%; in series [3] (6.3ug), 60.702%; in series [3] (25ug), 51.13%; in series [3] (100ug), 43.771%.
In the case of `CCOC(=O)C1=C(C)N=c2sc(=Cc3ccc(OC)cc3OC)c(=O)n2C1c1ccc(OC)cc1OC` (stereo not shown) [Compound 3c, Ethyl 2–(2,4-dimethoxybenzylidene)-5–(2,4-dimethoxyphenyl)-7-methyl-3-oxo-2,3-dihydro-5H-thiazolo[3,2-a]pyrimidine-6-carboxylate], the half-maximal inhibitory concentration (IC50) in series [1] (setting [4]) was found to be 9 nM; in series [2] (setting [5]), 19 nM; on human topoisomerase II, 1390 ± 80 nM. Besides, the “%inh TOPO II” value was determined as 31% at human topoisomerase II (conc 0.1 (μM)), 45% at human topoisomerase II (conc 1 (μM)), 63% at human topoisomerase II (conc 10 (μM)) and 89% on human topoisomerase II (conc 100 (μM)).
Consider `CCOC(=O)C1=C(C)N=C2SC=C(NC(=O)c3ccc(Cl)cc3)N2C1c1ccc(OC)cc1OC` (stereo not shown) [Compound 4a, Ethyl 3–(4-chlorobenzamido)-5–(2,4-dimethoxyphenyl)-7-methyl-5H-thiazolo[3,2-a]pyrimidine-6-carboxylate], for which the melting point lay in the range of 150 to 152 °C.

By melting point is commonly meant the temperature of the solid-liquid transition. The IC50 is the concentration that gives 50% inhibition.

These data come from paper PMC9930781, “Design, synthesis, docking, and anticancer evaluations of new thiazolo[3,2-a] pyrimidines as topoisomerase II inhibitors” (Journal of Enzyme Inhibition and Medicinal Chemistry, 2023).
